The results in this text go back to patent publication US10106556B2, “Heterocyclic compound” (TAKEDA PHARMACEUTICAL COMPANY LIMITED, priority 2015, dated 2018).

This assay addresses T1, His-hMAGL (recombinant polyhistidine tagged human MAGL protein) (Homo sapiens, UniProt Q99685).
T1 construct: made in house; host or cells: E. coli BL21(DE3)
T1 sequence (Q99685 1-303): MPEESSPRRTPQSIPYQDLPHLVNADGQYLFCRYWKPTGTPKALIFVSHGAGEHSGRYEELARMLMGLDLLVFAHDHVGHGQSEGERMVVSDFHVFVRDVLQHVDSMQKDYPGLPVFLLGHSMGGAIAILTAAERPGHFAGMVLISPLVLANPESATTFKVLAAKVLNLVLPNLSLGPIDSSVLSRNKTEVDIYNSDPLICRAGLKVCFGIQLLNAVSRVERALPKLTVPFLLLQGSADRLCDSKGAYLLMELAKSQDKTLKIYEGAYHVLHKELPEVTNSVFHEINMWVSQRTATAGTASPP
Kind of assay: Measurement of MAGL inhibitory activity (arachidonic acid production from 2-arachidonylglycerol, RapidFire-mass spectrometry). The following applies: MAGL inhibitory rate at 10 μM test compound; 60 min preincubation with His-hMAGL, 2-arachidonylglycerol substrate, 10 min reaction at room temperature. The assay is classed as biochemical. A digest of the protocol: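 Recombinant His-tagged human MAGL converted 2-arachidonylglycerol to arachidonic acid. Reactions received acetonitrile with 3 μM arachidonic acid-d8 as internal standard, and product was quantified by RapidFire SPE (C4) with negative-mode SRM mass spectrometry. Percent inhibition was calculated against compound-free and enzyme-free controls.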
For the compound `COc1ccccc1-c1ccccc1OCC1CN(C(=O)c2cc3c(cc2F)OCC(=O)N3)C1` [Example 174, 7-fluoro-6-((3-(((2′-methoxybiphenyl-2-yl)oxy)methyl)azetidin-1-yl)carbonyl)-2H-1,4-benzoxazin-3(4H)-one], the inhibition at 10 µM was determined as 102%. Next, `O=C1COc2cc(F)c(C(=O)N3CC(COc4ccc(Cl)cc4-c4nnco4)C3)cc2N1` [Example 175, 6-((3-((4-chloro-2-(1,3,4-oxadiazol-2-yl)phenoxy)methyl)azetidin-1-yl)carbonyl)-7-fluoro-2H-1,4-benzoxazin-3(4H)-one]: 97%; `CCc1ccc(-c2ccnc(C)c2OCC2CN(C(=O)c3cc4c(cc3F)OCC(=O)N4)C2)nc1` [Example 176, 6-((3-(((5-ethyl-2′-methyl-2,4′-bipyridin-3′-yl)oxy)methyl)azetidin-1-yl)carbonyl)-7-fluoro-2H-1,4-benzoxazin-3(4H)-one]: 95%; `Cc1nccc(-c2ccccn2)c1OCC1CN(C(=O)c2cc3c(cc2F)OCC(=O)N3)C1` [Example 177, 7-fluoro-6-((3-(((2′-methyl-2,4′-bipyridin-3′-yl)oxy)methyl)azetidin-1-yl)carbonyl)-2H-1,4-benzoxazin-3(4H)-one]: 91%. Next, `Cc1cc(OCC2CN(C(=O)c3cc4c(cc3F)OCC(=O)N4)C2)n(-c2ccccn2)n1` [Example 178, 7-fluoro-6-((3-(((3-methyl-1-(pyridin-2-yl)-1H-pyrazol-5-yl)oxy)methyl)azetidin-1-yl)carbonyl)-2H-1,4-benzoxazin-3(4H)-one]: 94%; `O=C1COc2cc(F)c(C(=O)N3CC(COc4noc5ccc(Cl)cc45)C3)cc2N1` [Example 180, 6-((3-(((5-chloro-1,2-benzoxazol-3-yl)oxy)methyl)azetidin-1-yl)carbonyl)-7-fluoro-2H-1,4-benzoxazin-3(4H)-one]: 96%. Then `O=C1COc2cc(F)c(C(=O)N3CC(COc4ccc5nccn5c4-c4ccc(F)cc4)C3)cc2N1` [Example 181, 7-fluoro-6-((3-(((5-(4-fluorophenyl)imidazo[1,2-a]pyridin-6-yl)oxy)methyl)azetidin-1-yl)carbonyl)-2H-1,4-benzoxazin-3(4H)-one], with 99%; and `O=C1COc2cc(F)c(C(=O)N3CC(COc4ccc(Br)cc4)C3)cc2N1` [Example 182, 6-((3-((4-bromophenoxy)methyl)azetidin-1-yl)carbonyl)-7-fluoro-2H-1,4-benzoxazin-3(4H)-one], with 98%; and `Cc1ccc(OCC2CN(C(=O)c3cc4c(cc3F)OCC(=O)N4)C2)cc1Cl` [Example 183, 6-((3-((3-chloro-4-methylphenoxy)methyl)azetidin-1-yl)carbonyl)-7-fluoro-2H-1,4-benzoxazin-3(4H)-one], with 99%.

Consider `Cc1cc(OCC2CN(C(=O)c3cc4c(cc3F)OCC(=O)N4)C2)ccc1Cl` [Example 184, 6-((3-((4-chloro-3-methylphenoxy)methyl)azetidin-1-yl)carbonyl)-7-fluoro-2H-1,4-benzoxazin-3(4H)-one], for which the inhibition at 10 µM came to 100%.

`O=C1COc2cc(F)c(C(=O)N3CC(COc4ccc(Cl)cc4Br)C3)cc2N1` [Example 185, 6-((3-((2-bromo-4-chlorophenoxy)methyl)azetidin-1-yl)carbonyl)-7-fluoro-2H-1,4-benzoxazin-3(4H)-one]: the inhibition at 10 µM stood at 100%. As to `O=C1COc2cc(F)c(C(=O)N3CCC(COc4cccc5scnc45)CC3)cc2N1` [Example 186, 6-((4-((1,3-benzothiazol-4-yloxy)methyl)piperidin-1-yl)carbonyl)-7-fluoro-2H-1,4-benzoxazin-3(4H)-one], the inhibition at 10 µM came to 97%. Regarding `Cc1nc2c(OCC3CCN(C(=O)c4cc5c(cc4F)OCC(=O)N5)CC3)cccc2s1` [Example 187, 7-fluoro-6-((4-(((2-methyl-1,3-benzothiazol-4-yl)oxy)methyl)piperidin-1-yl)carbonyl)-2H-1,4-benzoxazin-3(4H)-one], the inhibition at 10 µM turned out to be 98%.

Consider `O=C1COc2cc(F)c(C(=O)N3CC(COc4ccc(C(F)(F)F)cc4F)C3)cc2N1` [Example 188, 7-fluoro-6-((3-((2-fluoro-4-(trifluoromethyl)phenoxy)methyl)azetidin-1-yl)carbonyl)-2H-1,4-benzoxazin-3(4H)-one], for which the inhibition at 10 µM is 97%. Then `O=C1COc2cc(F)c(C(=O)N3CC(COc4ccc(Cl)cc4-c4ccccn4)C3)cc2N1` [Example 189, 6-((3-((4-chloro-2-(pyridin-2-yl)phenoxy)methyl)azetidin-1-yl)carbonyl)-7-fluoro-2H-1,4-benzoxazin-3(4H)-one], with 102%.

On to `Cc1ccc(-c2cc(Cl)ccc2OCC2CN(C(=O)c3cc4c(cc3F)OCC(=O)N4)C2)cn1` [Example 190, 6-((3-((4-chloro-2-(6-methylpyridin-3-yl)phenoxy)methyl)azetidin-1-yl)carbonyl)-7-fluoro-2H-1,4-benzoxazin-3(4H)-one], for which the inhibition at 10 µM stood at 102%. Regarding `Cc1ncccc1-c1cc(Cl)ccc1OCC1CN(C(=O)c2cc3c(cc2F)OCC(=O)N3)C1` [Example 191, 6-((3-((4-chloro-2-(2-methylpyridin-3-yl)phenoxy)methyl)azetidin-1-yl)carbonyl)-7-fluoro-2H-1,4-benzoxazin-3(4H)-one], the inhibition at 10 µM is 102%. Then `O=C1COc2cc(F)c(C(=O)N3CC(COc4ccc(Cl)cc4-c4cccnc4)C3)cc2N1` [Example 192, 6-((3-((4-chloro-2-(pyridin-3-yl)phenoxy)methyl)azetidin-1-yl)carbonyl)-7-fluoro-2H-1,4-benzoxazin-3(4H)-one], with 99%. Next, `Cc1cc(-c2cc(Cl)ccc2OCC2CN(C(=O)c3cc4c(cc3F)OCC(=O)N4)C2)ccn1` [Example 193, 6-((3-((4-chloro-2-(2-methylpyridin-4-yl)phenoxy)methyl)azetidin-1-yl)carbonyl)-7-fluoro-2H-1,4-benzoxazin-3(4H)-one]: 102%; `O=C1COc2cc(F)c(C(=O)N3CC(COc4ccc(Br)cc4F)C3)cc2N1` [Example 194, 6-((3-((4-bromo-2-fluorophenoxy)methyl)azetidin-1-yl)carbonyl)-7-fluoro-2H-1,4-benzoxazin-3(4H)-one]: 103%; `O=C1COc2cc(F)c(C(=O)N3CC(COc4ccc(Cl)cc4-c4ccc(F)cn4)C3)cc2N1` [Example 195, 6-((3-((4-chloro-2-(5-fluoropyridin-2-yl)phenoxy)methyl)azetidin-1-yl)carbonyl)-7-fluoro-2H-1,4-benzoxazin-3(4H)-one]: 101%.

In the case of `O=C1COc2cc(F)c(C(=O)N3CC(COc4ccc(Cl)cc4-c4ccc(Cl)cn4)C3)cc2N1` [Example 196, 6-((3-((4-chloro-2-(5-chloropyridin-2-yl)phenoxy)methyl)azetidin-1-yl)carbonyl)-7-fluoro-2H-1,4-benzoxazin-3(4H)-one], the inhibition at 10 µM was determined as 94%.

On to `Cc1cccc(-c2cc(Cl)ccc2OCC2CN(C(=O)c3cc4c(cc3F)OCC(=O)N4)C2)n1` [Example 197, 6-((3-((4-chloro-2-(6-methylpyridin-2-yl)phenoxy)methyl)azetidin-1-yl)carbonyl)-7-fluoro-2H-1,4-benzoxazin-3(4H)-one], for which the inhibition at 10 µM is 104%. Next, `O=C1COc2cc(F)c(C(=O)N3CC(COc4ccc(Cl)cc4-c4cccnc4Cl)C3)cc2N1` [Example 198, 6-((3-((4-chloro-2-(2-chloropyridin-3-yl)phenoxy)methyl)azetidin-1-yl)carbonyl)-7-fluoro-2H-1,4-benzoxazin-3(4H)-one]: 100%. Regarding `CCc1ncccc1-c1cc(Cl)ccc1OCC1CN(C(=O)c2cc3c(cc2F)OCC(=O)N3)C1` [Example 199, 6-((3-((4-chloro-2-(2-ethylpyridin-3-yl)phenoxy)methyl)azetidin-1-yl)carbonyl)-7-fluoro-2H-1,4-benzoxazin-3(4H)-one], the inhibition at 10 µM was determined as 103%. As to `O=C1COc2cc(F)c(C(=O)N3CC(COc4ccc(Cl)cc4-c4cncc(F)c4)C3)cc2N1` [Example 200, 6-((3-((4-chloro-2-(5-fluoropyridin-3-yl)phenoxy)methyl)azetidin-1-yl)carbonyl)-7-fluoro-2H-1,4-benzoxazin-3(4H)-one], the inhibition at 10 µM was determined as 102%. Then `O=C1COc2cc(F)c(C(=O)N3CC(COc4ccc(Cl)cc4-c4cncc(Cl)c4)C3)cc2N1` [Example 201, 6-((3-((4-chloro-2-(5-chloropyridin-3-yl)phenoxy)methyl)azetidin-1-yl)carbonyl)-7-fluoro-2H-1,4-benzoxazin-3(4H)-one], with 101%; and `Cc1cncc(-c2cc(Cl)ccc2OCC2CN(C(=O)c3cc4c(cc3F)OCC(=O)N4)C2)c1` [Example 202, 6-((3-((4-chloro-2-(5-methylpyridin-3-yl)phenoxy)methyl)azetidin-1-yl)carbonyl)-7-fluoro-2H-1,4-benzoxazin-3(4H)-one], with 100%; and `Cc1ccncc1-c1cc(Cl)ccc1OCC1CN(C(=O)c2cc3c(cc2F)OCC(=O)N3)C1` [Example 203, 6-((3-((4-chloro-2-(4-methylpyridin-3-yl)phenoxy)methyl)azetidin-1-yl)carbonyl)-7-fluoro-2H-1,4-benzoxazin-3(4H)-one], with 103%.
